{
  "source": "patent US11708357B2",
  "about": "“Crystal form of pyrrolidinyl urea derivative and application thereof” (ZHANGZHOU PIEN TZE HUANG PHARMACEUTICAL CO., LTD., priority 2020, dated 2023)",
  "assay": "In vivo pharmacokinetic study in rats after single administration",
  "conditions": "male, Sprague Dawley, rat, plasma, 2 mg/kg, 2 mpk intravenous injection",
  "method": "Male SD rats were used as test animals, and the concentration of the compound in blood was determined after single administration to evaluate the pharmacokinetic behavior.\nSprague Dawley rats (male, 200-300 g, 7-9 weeks, Shanghai Charles River Laboratory Animal Co., Ltd.)\nThe pharmacokinetic characteristics of the test compound in rodents after intravenous injection and oral administration were tested by standard protocols, in the experiment, the test compound was prepared into a clear solution or homogeneous suspension, and administered to the rats by single intravenous injection and oral administration. In the intravenous injection group, the menstruum was a certain proportion of ethanol and physiological saline solution or a certain proportion of dimethyl sulfoxide in HP-β cyclodextrin solution (the pH was adjusted to 3-4), the mixture was vortexed and stirred to prepare 1 mg/mL clear solution, then filtered with microporous membrane for later use; in the oral administration group, the menstruum was a certain proportion of sodium carboxymethyl cellulose solution or a certain proportion of dimethyl sulfoxide in HP-β cyclodextrin solution (the pH was adjusted to about 4), after the test compound was mixed with the solvent, the mixture was vortexed and stirred to prepare 30 mg/mL homogeneous suspension for later use. After 2 mg/kg intravenous administration or 300 mg/kg oral administration to rats, a certain amount of whole blood samples were collected, centrifuged at 3000 g for 15 minutes, the supernatant was separated to obtain the plasma samples; then an acetonitrile solution containing internal standard with a volume 3 times that of the plasma sample was added to precipitate proteins, and then centrifuged; the supernatant was separated, and water with a volume twice that of the supernatant was added to the supernatant, which was then centrifuged again; the supernatant was collected for analysis; LC-MS/MS analysis method was used to quantitatively analyze the blood drug concentration, and Phoenix WinNonlin software (Pharsight, USA) was used to calculate the pharmacokinetic parameters, such as peak concentration, time to peak concentration, clearance rate, half-life, area under the concentration-time curve, bioavailability, etc.\nAmong them, C0 is the initial concentration, T1/2 is the elimination half-life, Vdss is the steady-state apparent volume of distribution, Cl is the total clearance rate, AUC0-inf is the area under the plasma drug concentration-time curve from time 0 to infinity, Cmax is the peak concentration, Tmax is the time to peak concentration.",
  "data": [
    {"smiles": "COCCN1C[C@@H](n2ccc(F)c2)[C@H](NC(=O)Nc2c(C)c(-c3cnc(C4(F)COC4)nc3)nn2-c2ccccc2)C1", "note": "[Compound of formula (I)]", "values": [
      {"measurement": "AUC(0-inf)", "value": 2.61, "unit": "µM·h"},
      {"measurement": "C0", "value": 5.38, "unit": "µM"},
      {"measurement": "clearance", "value": 22.4, "unit": "mL/min/kg"},
      {"measurement": "half-life", "value": 33, "unit": "min"},
      {"measurement": "Vd", "setting": "read-out: Vdss", "value": 0.81, "unit": "L/kg"}
    ]}
  ]
}
